In ChEMBL document CHEMBL1201862, “PubChem BioAssay data set” (2004) one finds IC50, EC50 and AC50 data, which are given here for 22 molecules.

Active and inactive are the calls of the source. Rule as the data show it, for most assays here: actives have a measured EC50 and inactives only a lower limit.

The term IC50 denotes the concentration that gives 50% inhibition. Broadly, the EC50 is the concentration at which the effect is half-maximal. Broadly, the AC50 is the concentration at which the activity in the assay is half-maximal.

The target in one test is T1, Aminopeptidase N (Plasmodium falciparum FcB1/Columbia, UniProt O96935).
T1 sequence (O96935 whole entry): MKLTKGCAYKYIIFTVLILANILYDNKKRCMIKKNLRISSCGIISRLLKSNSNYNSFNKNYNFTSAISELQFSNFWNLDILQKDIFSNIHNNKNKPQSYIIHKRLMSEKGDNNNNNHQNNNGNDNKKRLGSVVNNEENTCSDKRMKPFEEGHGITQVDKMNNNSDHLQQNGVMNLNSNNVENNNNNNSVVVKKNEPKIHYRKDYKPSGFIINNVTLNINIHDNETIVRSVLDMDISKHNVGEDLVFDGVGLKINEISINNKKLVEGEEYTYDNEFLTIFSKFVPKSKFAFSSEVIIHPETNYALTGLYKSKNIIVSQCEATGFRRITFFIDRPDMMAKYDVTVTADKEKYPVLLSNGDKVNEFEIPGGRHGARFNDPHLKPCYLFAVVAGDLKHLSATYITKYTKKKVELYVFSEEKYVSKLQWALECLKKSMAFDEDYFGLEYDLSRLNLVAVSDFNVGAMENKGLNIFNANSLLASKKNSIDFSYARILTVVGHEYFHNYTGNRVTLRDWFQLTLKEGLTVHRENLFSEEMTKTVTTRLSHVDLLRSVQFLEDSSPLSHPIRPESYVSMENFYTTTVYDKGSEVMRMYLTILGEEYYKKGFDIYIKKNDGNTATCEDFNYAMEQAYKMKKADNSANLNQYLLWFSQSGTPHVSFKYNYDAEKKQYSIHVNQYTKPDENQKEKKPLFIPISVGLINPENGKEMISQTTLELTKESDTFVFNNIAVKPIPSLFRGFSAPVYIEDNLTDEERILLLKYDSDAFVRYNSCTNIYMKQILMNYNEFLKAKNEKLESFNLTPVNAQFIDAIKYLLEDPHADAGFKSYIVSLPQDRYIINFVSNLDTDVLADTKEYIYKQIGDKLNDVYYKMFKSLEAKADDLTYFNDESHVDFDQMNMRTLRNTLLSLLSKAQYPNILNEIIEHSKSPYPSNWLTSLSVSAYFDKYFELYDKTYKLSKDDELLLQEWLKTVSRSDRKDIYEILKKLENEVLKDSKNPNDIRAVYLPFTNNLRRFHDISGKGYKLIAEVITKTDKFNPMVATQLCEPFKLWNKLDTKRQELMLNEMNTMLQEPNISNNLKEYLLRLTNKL
As to the kind of experiment: malaria alanyl aminopeptidase activity blockers – biochemical, fluorogenic H-Leu-NHMec substrate, 1536-well (AID 1445). Details: species or system Plasmodium falciparum 3D7, 3D7.

Test [1] addresses T2, Zinc finger protein mex-5 (Caenorhabditis elegans, UniProt Q9XUB2).
T2 sequence (Q9XUB2 whole entry): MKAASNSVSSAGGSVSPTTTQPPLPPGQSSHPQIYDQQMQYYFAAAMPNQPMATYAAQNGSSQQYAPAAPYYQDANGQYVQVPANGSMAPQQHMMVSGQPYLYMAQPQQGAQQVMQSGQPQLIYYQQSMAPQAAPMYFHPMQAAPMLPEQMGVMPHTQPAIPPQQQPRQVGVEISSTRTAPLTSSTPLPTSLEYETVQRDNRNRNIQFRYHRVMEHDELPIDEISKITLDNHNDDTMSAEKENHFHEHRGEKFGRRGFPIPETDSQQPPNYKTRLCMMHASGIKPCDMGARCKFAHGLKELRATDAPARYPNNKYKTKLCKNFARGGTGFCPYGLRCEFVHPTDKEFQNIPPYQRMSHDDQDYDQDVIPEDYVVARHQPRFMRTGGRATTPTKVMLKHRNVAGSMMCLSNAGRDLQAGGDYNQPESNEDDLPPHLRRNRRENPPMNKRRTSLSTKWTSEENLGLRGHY
As to the kind of experiment: potency of MEX-5 RNA-binding blockers – biochemical, C. elegans, fluorescence polarization, dose response (AID 1960). (In general: Fluorescence polarisation rises when a labelled molecule tumbles more slowly, as on binding a larger partner.)

The target of test [2] is T3, RNA-binding protein pos-1 (Caenorhabditis elegans, UniProt G5EF15).
T3 sequence (G5EF15 whole entry): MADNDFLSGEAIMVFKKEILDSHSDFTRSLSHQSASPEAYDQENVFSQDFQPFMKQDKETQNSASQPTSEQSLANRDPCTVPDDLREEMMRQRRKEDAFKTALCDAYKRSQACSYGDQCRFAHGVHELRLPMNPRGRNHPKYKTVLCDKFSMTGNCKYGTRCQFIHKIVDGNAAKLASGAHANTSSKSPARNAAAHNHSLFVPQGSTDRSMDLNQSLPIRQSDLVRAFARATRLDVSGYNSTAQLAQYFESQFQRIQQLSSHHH
Description: disruptors of C. elegans POS-1 RNA interaction – biochemical, fluorescence polarization, dose response (AID 1964).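 Also: purified POS-1 fused to maltose binding protein made in E. coli; potency of compounds blocking POS-1 binding to fluorescent RNA.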

A short description of test [3]: Luminescence Cell-Based Dose Confirmation HTS to Identify Inhibitors of Platelet Dense Granule Release. [Related pubchem assays: 1663 (Primary HTS), 1678 (Summary of Project)]. The class given is functional.
For test [4], the target named is Luciferin 4-monooxygenase (Photinus pyralis, UniProt P08659). Description: inhibition of purified Photinus pyralis luciferase – biochemical, luminescence, dose response (AID 1891).
Test [5] can be described thus: NIH3T3 cell viability loss – ATP luminescence, mouse fibroblasts, counter-screen, dose response (AID 2010).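 Also: cells exposed to compound for about 90 hours before reading.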 The class given is functional, cell-based. For orientation: Counterscreens check selectivity or assay interference.
A short description of test [6]: Trypanosoma cruzi growth suppression in host cells – NIH3T3 host cells, beta-gal luminescence, confirmation (AID 2044).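 Also: intracellular parasites grown in NIH/3T3 mouse fibroblasts as host cells; luminescent beta-galactosidase reporter signal from transgenic T. cruzi replicating inside host cells; inhibitors lower the luminescence signal.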 Type of test: functional, cell-based.
For another test, the target named is T4, Protein RecA (Mycobacterium tuberculosis, UniProt P9WHJ3).
T4 sequence (P9WHJ3 whole entry): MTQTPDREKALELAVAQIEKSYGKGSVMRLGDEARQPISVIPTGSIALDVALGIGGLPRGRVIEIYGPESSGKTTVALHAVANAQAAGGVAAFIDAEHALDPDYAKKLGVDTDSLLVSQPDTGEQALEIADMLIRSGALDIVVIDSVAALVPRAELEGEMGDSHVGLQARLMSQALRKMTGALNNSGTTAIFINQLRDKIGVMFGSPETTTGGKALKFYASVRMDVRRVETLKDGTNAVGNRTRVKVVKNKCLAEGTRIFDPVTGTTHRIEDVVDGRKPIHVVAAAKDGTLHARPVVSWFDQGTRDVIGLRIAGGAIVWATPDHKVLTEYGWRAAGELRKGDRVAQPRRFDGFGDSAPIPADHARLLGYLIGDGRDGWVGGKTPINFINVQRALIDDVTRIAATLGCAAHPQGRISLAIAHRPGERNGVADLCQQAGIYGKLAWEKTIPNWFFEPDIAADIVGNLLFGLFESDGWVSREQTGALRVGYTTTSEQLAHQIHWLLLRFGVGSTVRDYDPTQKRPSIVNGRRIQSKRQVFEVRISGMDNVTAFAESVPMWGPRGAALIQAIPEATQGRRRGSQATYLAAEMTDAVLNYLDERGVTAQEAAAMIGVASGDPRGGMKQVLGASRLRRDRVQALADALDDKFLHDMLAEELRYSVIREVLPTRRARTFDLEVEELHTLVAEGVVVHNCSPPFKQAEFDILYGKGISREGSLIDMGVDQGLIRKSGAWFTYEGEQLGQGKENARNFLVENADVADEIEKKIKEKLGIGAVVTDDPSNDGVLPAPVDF
Description: Fluorescence Cell-Free Homogeneous Dose Retest to Identify Inhibitors of RecA-Intein Splicing Activity. [Related pubchem assays (depositor defined):AID2097, AID2223, AID489010, AID492950]. The class given is functional.

For test [7], the target named is T5, Replicative DNA helicase DnaB (Mycobacterium tuberculosis, UniProt P9WMR3).
T5 sequence (P9WMR3 whole entry): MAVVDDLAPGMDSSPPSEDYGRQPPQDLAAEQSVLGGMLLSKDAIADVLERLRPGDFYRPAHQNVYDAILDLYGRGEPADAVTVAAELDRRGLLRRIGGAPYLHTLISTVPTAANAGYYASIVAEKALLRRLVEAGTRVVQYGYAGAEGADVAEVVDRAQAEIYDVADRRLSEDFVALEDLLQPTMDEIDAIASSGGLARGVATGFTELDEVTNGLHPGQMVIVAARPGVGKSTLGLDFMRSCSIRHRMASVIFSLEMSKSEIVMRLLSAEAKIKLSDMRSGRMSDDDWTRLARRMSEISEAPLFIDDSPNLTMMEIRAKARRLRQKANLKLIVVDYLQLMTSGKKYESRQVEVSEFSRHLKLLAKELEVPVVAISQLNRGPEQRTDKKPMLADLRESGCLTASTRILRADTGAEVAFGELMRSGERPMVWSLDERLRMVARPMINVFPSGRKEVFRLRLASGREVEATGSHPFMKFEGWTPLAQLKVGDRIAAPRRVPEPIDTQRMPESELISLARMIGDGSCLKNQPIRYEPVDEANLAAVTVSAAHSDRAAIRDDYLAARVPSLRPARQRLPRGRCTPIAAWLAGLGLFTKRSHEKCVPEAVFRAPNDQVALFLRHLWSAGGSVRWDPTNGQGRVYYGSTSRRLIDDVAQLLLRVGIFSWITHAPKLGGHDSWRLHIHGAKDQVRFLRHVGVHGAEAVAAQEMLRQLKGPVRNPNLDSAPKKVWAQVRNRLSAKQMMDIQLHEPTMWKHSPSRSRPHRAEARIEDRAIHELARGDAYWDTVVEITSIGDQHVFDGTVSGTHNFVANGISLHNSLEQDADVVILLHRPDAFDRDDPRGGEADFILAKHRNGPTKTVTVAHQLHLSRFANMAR
As to the kind of experiment: DnaB intein splicing inhibitors, dose response, biochemical, cell-free fluorescence (AID 449749). The class given is functional.

Test [8] can be described thus: reduction of Shn3 3'UTR-driven luciferase in osteoblasts – cell-based, Clone20 osteoblasts, firefly luciferase, cherry-picked, dose response (AID 624132).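 Also: firefly luciferase luminescence from reporter carrying the Shn3 3'UTR in osteoblasts.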 Type of test: functional.
Test [9] is described as follows: P. falciparum Dd2 growth inhibitors, dose response, SYBR Green, cherry-picked samples (AID 1159567). Type of test: functional, cell-based.

Chain of Luciferin 4-monooxygenase (P08659 whole entry): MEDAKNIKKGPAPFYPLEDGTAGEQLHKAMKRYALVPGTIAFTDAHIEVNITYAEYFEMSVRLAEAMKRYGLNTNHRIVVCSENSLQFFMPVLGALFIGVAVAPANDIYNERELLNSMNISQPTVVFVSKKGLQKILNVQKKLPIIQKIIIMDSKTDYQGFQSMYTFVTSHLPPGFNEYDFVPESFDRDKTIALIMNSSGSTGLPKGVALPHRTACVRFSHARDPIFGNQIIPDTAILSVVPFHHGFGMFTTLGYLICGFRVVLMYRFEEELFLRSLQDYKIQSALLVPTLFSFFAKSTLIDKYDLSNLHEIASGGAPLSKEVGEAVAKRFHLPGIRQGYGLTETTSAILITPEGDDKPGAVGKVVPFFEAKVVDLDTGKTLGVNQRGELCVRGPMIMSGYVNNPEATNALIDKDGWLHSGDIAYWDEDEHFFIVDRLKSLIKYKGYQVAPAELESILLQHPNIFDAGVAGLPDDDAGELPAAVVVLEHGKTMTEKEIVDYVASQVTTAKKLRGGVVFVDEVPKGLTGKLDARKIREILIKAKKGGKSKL

As for `Cc1noc(NS(=O)(=O)c2ccc(NC(=O)C(CC(C)C)N3C(=O)c4ccccc4C3=O)cc2)c1C` (configuration not stated), at Aminopeptidase N, the IC50 is 7.56 µM (active).
Consider `CSc1nnc(N2C(=O)C(O)=C(C(=O)c3ccco3)C2c2ccc(F)cc2)s1` (configuration not stated), for which the half-maximal effective concentration (EC50) in test [1] is 82.8 µM (active); in test [2], > 150 µM (not active); in test [3], > 112 µM (not active); in [4], > 112 µM (not active).
As to `N=c1c(C(=O)NCC2CCCO2)cc2c(=O)n3ccccc3nc2n1Cc1ccccc1Cl` (configuration not stated), the half-maximal effective concentration (EC50) in test [1] was 195 µM (active); in [2], 104 µM (active).
Consider `Cc1ccc(N/C=C2/Sc3ccccc3NC2=O)cc1`, for which the half-maximal effective concentration (EC50) was > 300 µM (inconclusive) in test [1], > 300 µM (not active) in [2], > 30 µM (not active) in test [5] and 0.806 µM (active) in test [6].
As to `COC(=O)CC1=NN(c2ccc(OC)cc2)C(=O)C1`, on Protein RecA, the EC50 was 13.1 µM (active). Moreover, in test [7], the concentration at half-maximal activity (AC50) was 54.9 µM (active).
On to `COCCCNC(=O)C(C#N)c1nc2ccccc2nc1N1CCCC1` (configuration not stated), for which the values for the half-maximal effective concentration (EC50) in test [1] and in test [2] were > 300 µM (inconclusive) and 23.8 µM (active), respectively.
For the molecule `CCc1nnc(NS(=O)(=O)c2ccc(NC(=S)NC(=O)c3cccs3)cc2)s1`, the IC50 on Aminopeptidase N is 35.4 µM (active).
As to `COc1ccc(C2C(C#N)=C(N)OC3=C2C(=O)CC(C)C3)c(OC)c1OC` (configuration not stated), the EC50 in test [1] and in [2] was > 300 µM (not active) in each case.
Take `O=C1NC(=O)N(c2ccccc2)C(=O)/C1=C\NN1C(=O)c2cccc3cccc(c23)C1=O`: the concentration for a half-maximal effect (EC50) in [1] was 72 µM (active); in test [2], > 300 µM (not active).
`O=c1oc2c(CN3CCOCC3)c(O)ccc2c2c1CCCC2`: the IC50 at Aminopeptidase N was 23.7 µM (active).
Take `NC(=O)c1sc2nnc(-c3ccccc3)c(-c3ccccc3)c2c1N`: the 50% effective concentration (EC50) in test [1] and in [2] was > 300 µM (not active) in each case.
`CCOC(=O)Cn1c(S(=O)(=O)Cc2ccccc2Cl)nc(-c2ccccc2)c1-c1ccccc1`: in test [8], the AC50 was 9.29 µM (active).
As for `Cc1ccc(/C=C/C(=O)c2ccc(N3CCOCC3)cc2)s1`, the 50% effective concentration (EC50) in [1] and in test [2] was > 300 µM (not active) throughout.
As for `Cc1nn(-c2ccccc2)c2c1C(c1ccccc1)C(C#N)=C(N)O2` (configuration not stated), the EC50 at Protein RecA was 9.07 µM (active). In addition, the concentration at half-maximal activity (AC50) in test [7] is 16.8 µM (active).
With `CN(C)c1oc(-c2cccs2)nc1C#N`, the half-maximal inhibitory concentration (IC50) at Aminopeptidase N is 104 µM (active).
Regarding `CN(C)Cc1c(O)ccc2c3c(c(=O)oc12)CCCCC3`, the IC50 on Aminopeptidase N was 44.5 µM (active).
On to `Cc1ccc(/C=N/NC(=O)c2nnn(-c3nonc3N)c2-c2cccs2)cc1`, for which the half-maximal effective concentration (EC50) in [1] and in test [2] was > 300 µM (not active) throughout.
As to `COc1cc(CN2[C@@H]3CNC[C@H]2[C@@H]3c2ccc(-c3ccccc3)cc2)cc(OC)c1`, the AC50 in [9] is 6.99 µM (active).
In the case of `O=C1CN(S(=O)(=O)c2ccccc2)C[C@@H]2[C@H](c3ccc(C#CCc4ccccc4)cc3)[C@@H](CO)N12`, the half-maximal activity concentration (AC50) in test [9] is 4.23 µM (active).
The same measure, in the same setting: under `C[C@H]1CN([C@@H](C)CO)S(=O)(=O)c2ccc(C#Cc3ccccc3)cc2O[C@H]1CN(C)C(=O)C1CC1` stands 3.95 µM (active); under `O=C(C[C@@H]1CC[C@@H]2[C@H](COC[C@@H](O)CN2S(=O)(=O)c2ccccc2)O1)NCc1ccc(-c2ccccc2)cc1`, 6.32 µM (active).
Consider `CO[C@@H]1CN(C)C(=O)c2cc(NC(=O)Nc3cccc(Cl)c3)ccc2OC[C@H](C)NC[C@H]1C`, for which the AC50 in test [9] was 6.78 µM (active).
